What was measured:
[1] = test system: denatured collagen in sternum and tail tissue sections; assay: Staining of denatured collagen in paraffin-embedded mouse sternum and frozen tail tissue sections; type: binding; conditions: general statement on the probes of the embodiments
Procedure: Take the peptide probe prepared in Embodiment 1-5 for staining experiment. Paraffin staining of sternum: Embed mouse sternum tissue sections by paraffin and bake at 75° C. for 2 h; After cooling, treat the tissue with xylene twice, each time for 10 min; Then treat the slice with ethanol of gradient concentration; Finally, use ultrapure water to wash the slices twice. After removing the paraffin, treat the sternum tissue with ultrapure water at 85° C. for 10 minutes to denature collagen. Add blocking solution to the tissue section, leave it for 30 min, then suck up the solution, stain with 100 μL and 15 μM of the above peptide probe solutions, and incubate at 4° C. for 4 h; After removing the staining solution, wash with 1×PBS for 3 times, and wash the unbound probe with the washing solution; Drop mount solution, add cover slide, observe and take photos with fluorescence microscope.
Staining of frozen tail tissue: Treat tail tissue with 1% sodium dodecyl sulfate for 24 hours to denature collagen, and prepare the frozen sections. Put the slices in cold methanol and fix them at −20° C. for 10 min. Wash the frozen sections twice with PBS, add blocking solution to the tissue section, leave it for 30 min, then suck up the solution, stain with 100 μL and 15 μM of the above peptide probe solutions, and incubate at 4° C. for 2 h; After removing the staining solution, wash with 1×PBS for 3 times, and wash the unbound probe with the washing solution; Drop mount solution, add cover slide, observe and take photos with fluorescence microscope.
Results: The staining results of paraffin-embedded sternum tissues of peptide probe GOP-4, GOP-6, GOP-8, GOP-10 and GOP-12 prepared in Embodiment 1-5 of the present invention are shown in FIG. 1a.

[2] = Thermal stability test (fluorescence intensity at 525 nm, 0-95° C.); type: physicochemical; conditions: 15 μM probe in 10 mM phosphate buffer; for fluorescence intensity in the range of 0-95° C.: 525 nm, temperature gradient; for thermal transformation temperature: from derivative curves
Procedure: Take the peptide probe GOP-10, GPP-10, GPO-10 and GOO-10, and prepare 300 μM probe solutions respectively; Dilute each probe solution to 15 μM by 10 mM phosphate buffer, and store at 0° C. for later use. Take the probe solutions respectively, raise the temperature from 0° C. to 95° C. in a gradient, and detect the fluorescence intensity of the solutions at 525 nm during the temperature rise process to obtain the […]; Conduct the first derivative of the curve by corresponding the maximum value of the curve to the thermal change temperature of the probe.

[3] = Fluorescence spectrogram of probe solutions after 85° C. water bath and 0° C. ice bath; type: physicochemical; conditions: 300 μM probe solution, excitation 497 nm, emission 500-700 nm
Procedure: Take the peptide probe GOP-10, GPP-10, GPO-10 and GOO-10, and prepare 300 μM probe solutions respectively; Keep above probe solutions in a water bath at 85° C. for 20 min, and measure the fluorescence spectrogram by a fluorescence spectrophotometer immediately. Place heated probe solution in the ice-water mixture at 0° C. for 12 h, and measure the fluorescence spectrogram by fluorescence spectrophotometer again; The excitation wavelength is 497 nm, and the scanning range of emission spectrum is 500-700 nm.

[4] = Colorimetric assay of peptide probe solutions (trimer vs single-stranded state); type: physicochemical; conditions: 300 μM probe solution; for conformational state (colour of solution) at 0° C.: 0° C. ice-water for 12 h after heating; for conformational state (colour of solution) after heating: 85° C. water bath 20 min
Procedure: Take the peptide probe GOP-10, GPP-10, GPO-10 and GOO-10, and prepare 300 μM probe solutions respectively; Keep above probe solutions in a water bath at 85° C. for 20 min, and collect picture data via a digital camera and observe the color of the solutions. Place heated probe solution in the ice-water mixture at 0° C. for 12 h, and then collect picture data via a digital camera again and observe the color of the solution.

[5] = test system: denatured collagen in mouse intestinal tissue; assay: Staining of collagen in intestinal tissue of mice by peptide probe; type: binding; conditions: 15 μM probe; for fluorescence staining ability, probe incubated at 0° C. before staining: FIG. 5a-d; for fluorescence staining ability, probe pretreated at 85° C. before staining: FIG. 5e-h
Procedure: Take the peptide probe GOP-10, GPP-10, GPO-10 and GOO-10, and prepare 300 μM probe solutions respectively; Take the intestinal tissue samples of mice paraffin embedding and slice to 4 μm; After washing and deparaffinating the slices, treat the intestinal tissue with ultrapure water at 85° C. for 10 minutes to denature collagen.

[6] = test system: pathological collagen in human osteoarthritis tissue; assay: Staining of pathological section of human arthritis; type: binding; conditions: 15 μM probe, 4° C. 4 h
Procedure: Take human osteoarthritis tissue for paraffin embedding, slice to 4 μm, carry out washing and deparaffinating, and then add with 0.5 mL blocking solution, and suck off the liquid after placing for 30 min. Stain with 100 μL, 15 μM peptide probe solution, and incubate at 4° C. for 4 h. After removing the staining solution, stain with 100 μL DAPI diluent for 1 min. Use 1×PBS to wash for 3 times, and wash the unbound probes and excess DAPI. Drop mount solution, add cover slide, observe and take photos with fluorescence microscope.
The staining results of pathological sections of fibrocartilage of human osteoarthritis are shown in FIG. 7, and the staining results of pathological sections of hyaline cartilage of human osteoarthritis are shown in FIG. 8. […] Therefore, the peptide probe GOP-10 prepared by the invention can be used for detecting pathological collagen in human osteoarthritis fibrocartilage and osteoarthritis hyaline cartilage.

[7] = test system: pathological collagen in mouse ear tissue; assay: Staining of collagen in ear tissue of normal mice and diseased mice by peptide probe; type: binding; conditions: 15 μM probe
Procedure: Take the peptide probe GOP-10 and prepare 300 μM probe solutions;
Take mouse ear tissue samples for paraffin embedding and slice to 4 μm; After washing and deparaffinating the slice, treat part of the ear bone tissues with ultrapure water at 85° C. for 10 minutes to denature collagen, thus obtaining injured ear tissues; Untreated ear tissue is normal ear tissue. Add blocking solution to the tissue section, leave it for 30 min, then suck up the solution, stain with 100 μL and 15 μM of the above peptide probe solutions, and incubate at 4° C. for 4 h; After removing the staining solution, stain with 100 μL DAPI diluent for lmin and wash with 1×PBS for 3 times, and wash the unbound probe and excessive DAPI diluent with the washing solution; Drop mount solution, add cover slide, observe and take photos with fluorescence microscope;
The test results are shown in FIG. 6, in which the fluorescence detection results of injured mouse ear tissues are shown in FIG. 6a and normal mouse ear tissues are shown in FIG. 6b.

Substance | binding to pathological collagen [1] | fluorescence intensity in the range of 0-95° C. [2] | change of fluorescence intensity between 85° C. water bath and 0° C. ice bath [3] | conformational state (colour of solution) at 0° C. [4] | conformational state (colour of solution) after heating [4] | fluorescence staining ability, probe incubated at 0° C. before staining [5] | fluorescence staining ability, probe pretreated at 85° C. before staining [5] | staining of pathological section of fibrocartilage of human osteoarthritis ([6]; FIG. 7) | staining of pathological section of hyaline cartilage of human osteoarthritis ([6]; FIG. 8) | fluorescence staining of injured mouse ear tissue ([7]; collagen denatured at 85° C. for 10 min, FIG. 6a) | fluorescence staining of normal mouse ear tissue ([7]; untreated ear tissue, FIG. 6b) | thermal transformation temperature [2]
FAM-Ahx-(GOP)12-NH2 [GOP-12] | can specifically bind to pathological collagen | – | – | – | – | – | – | – | – | – | – | –
FAM-Ahx-(GOP)8-NH2 [GOP-8] | can specifically bind to pathological collagen | – | – | – | – | – | – | – | – | – | – | –
FAM-Ahx-(GOP)10-NH2 [GOP-10] | can specifically bind to pathological collagen | does not change | does not change | stable single-stranded conformation (green) | single-stranded state (green) | good fluorescence staining ability | good fluorescence staining ability | can specifically bind to pathological collagen | can specifically bind to pathological collagen | stained green | no green fluorescence | –
FAM-Ahx-(GPP)10-NH2 [GPP-10] | – | increased significantly | changed significantly | trimer state (orange) | single-stranded conformation (green) | no fluorescence staining ability | can be fluorescently stained | – | – | – | – | 39 °C
FAM-Ahx-(GPO)10-NH2 [GPO-10] | – | increased significantly | changed significantly | trimer state (orange) | single-stranded conformation (green) | no fluorescence staining ability | can be fluorescently stained | – | – | – | – | 63 °C
FAM-Ahx-(GOO)10-NH2 [GOO-10] | – | increased significantly | changed significantly | trimer state (orange) | single-stranded conformation (green) | no fluorescence staining ability | can be fluorescently stained | – | – | – | – | 69 °C
